Several values for one entry are separate records, joined by “and”; a condition that tells them apart may be missing. Equal entries are not always repeated. Inconclusive results and toxic doses are left out.
Test system: BDF1 mice, P388 leukemia ip, median survival T/C
Assay: NCI In Vivo Anticancer Drug Screen. Data for tumor model P388 Leukemia (intraperitoneal) in B6D2F1 (BDF1) mice
Details: endpoint: median survival time, higher = longer survival
Procedure, shortened: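 Mice carrying the transplantable tumour receive compound or vehicle. Survival is followed in each arm, and the treated measure is divided by the vehicle measure.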

[1] = dose: 100.0 mg/kg/injection, schedule: Q01DX009 (ip), vehicle: saline
[2] = dose: 100.0 mg/kg/injection, schedule: Q04DX003 (ip), vehicle: saline
[3] = dose: 200.0 mg/kg/injection, schedule: Q01DX009 (ip), vehicle: saline
[4] = dose: 200.0 mg/kg/injection, schedule: Q04DX003 (ip), vehicle: saline
[5] = dose: 100.0 mg/kg/injection, schedule: Q04DX003 (ip), vehicle: saline with Tween-80
[6] = dose: 200.0 mg/kg/injection, schedule: Q04DX003 (ip), vehicle: saline with Tween-80
[7] = dose: 100.0 mg/kg/injection, schedule: Q01DX009 (ip), vehicle: saline with Tween-80
[8] = dose: 200.0 mg/kg/injection, schedule: Q01DX009 (ip), vehicle: saline with Tween-80
[9] = dose: 50.0 mg/kg/injection, schedule: Q01DX009 (ip), vehicle: saline with Tween-80

For `O=C(O)C1(C(=O)O)CCC1.[NH2-].[NH2-].[Pt+2]`, the T/C (dose: 43.2 mg/kg/injection, schedule: Q01DX001 (ip), vehicle: saline) was 120 % of control.

For `CCCCCC(C)(C)O`, the T/C (dose: 50.0 mg/kg/injection, schedule: Q01DX009 (ip), vehicle: saline) was 95 % of control, the T/C [1] was 104 % of control and the T/C [2] was 112 % of control. The T/C [3] was 104 % of control and the T/C [4] was 100 % of control.

With `COC(=O)C1=COC(C)C(C=O)C1CC(=O)O` (configuration not stated) the T/C (dose: 10.0 mg/kg/injection, schedule: Q04DX003 (ip), vehicle: saline) was 113 % of control, the T/C (dose: 22.0 mg/kg/injection, schedule: Q04DX003 (ip), vehicle: saline) was 122 % of control and the T/C (dose: 33.0 mg/kg/injection, schedule: Q04DX003 (ip), vehicle: saline) was 120 % of control. For the same compound, the T/C (dose: 50.0 mg/kg/injection, schedule: Q04DX003 (ip), vehicle: saline) was 172 % of control and the T/C (dose: 75.0 mg/kg/injection, schedule: Q04DX003 (ip), vehicle: saline) was 95 % of control.

For `C/C(=C/c1cc2c(cc1Br)OCO2)[N+](=O)[O-]`, the T/C (dose: 25.0 mg/kg/injection, schedule: Q04DX003 (ip), vehicle: saline with Tween-80) was 98 % of control, the T/C (dose: 50.0 mg/kg/injection, schedule: Q04DX003 (ip), vehicle: saline with Tween-80) was 98 % of control and the T/C [5] was 100 % of control and 106 % of control. For the same compound, the T/C [6] was 115 % of control.

For `N#[N+]c1ccc2c(S(=O)(=O)O)cccc2c1O`, the T/C [1] was 92 % of control, the T/C [2] was 100 % of control and the T/C [3] was 103 % of control. For the same compound, the T/C [4] was 108 % of control, the T/C (dose: 400.0 mg/kg/injection, schedule: Q01DX009 (ip), vehicle: saline) was 89 % of control and the T/C (dose: 400.0 mg/kg/injection, schedule: Q04DX003 (ip), vehicle: saline) was 95 % of control.

In the case of `N#CC1CCCCC1C1(C#N)CCCCC1Cc1ccccn1` (configuration not stated), the T/C (dose: 100.0 mg/kg/injection, schedule: Q04DX002 (ip), vehicle: saline with Tween-80) is reported as 98 % of control, the T/C (dose: 200.0 mg/kg/injection, schedule: Q04DX002 (ip), vehicle: saline with Tween-80) is reported as 107 % of control and the T/C (dose: 400.0 mg/kg/injection, schedule: Q04DX002 (ip), vehicle: saline with Tween-80) is reported as 92 % of control.

With `O=C(NCCCCCCCCCCNC(=O)N1CC1)N1CC1` the T/C (dose: 3.0 mg/kg/injection, schedule: Q04DX003 (ip), vehicle: saline with Tween-80) was 154 % of control and the T/C (dose: 4.5 mg/kg/injection, schedule: Q04DX003 (ip), vehicle: saline with Tween-80) was 241 % of control.

In the case of `N=C(N)SCc1cccc([N+](=O)[O-])c1`, the T/C (dose: 12.5 mg/kg/injection, schedule: Q01DX009 (ip), vehicle: Klucel (hydroxypropylcellulose) (HPC)) is reported as 97 % of control, the T/C (dose: 25.0 mg/kg/injection, schedule: Q01DX009 (ip), vehicle: Klucel (hydroxypropylcellulose) (HPC)) is reported as 103 % of control and the T/C (dose: 50.0 mg/kg/injection, schedule: Q01DX009 (ip), vehicle: Klucel (hydroxypropylcellulose) (HPC)) is reported as 110 % of control.

With `CC(C)C1NC(=O)C2CCCN2C1=O` (configuration not stated) the T/C [7] was 100 % of control, the T/C [5] was 109 % of control and the T/C [8] was 100 % of control. For the same compound, the T/C [6] was 113 % of control, the T/C (dose: 400.0 mg/kg/injection, schedule: Q01DX009 (ip), vehicle: saline with Tween-80) was 123 % of control and the T/C (dose: 400.0 mg/kg/injection, schedule: Q04DX003 (ip), vehicle: saline with Tween-80) was 118 % of control.

`Cc1ccc2c(c1)C(=O)CCS2` was tested, and the T/C (dose: 100.0 mg/kg/injection, schedule: Q04DX003 (ip), vehicle: Klucel (hydroxypropylcellulose) (HPC)) was 100 % of control, the T/C (dose: 200.0 mg/kg/injection, schedule: Q04DX003 (ip), vehicle: Klucel (hydroxypropylcellulose) (HPC)) was 100 % of control and the T/C (dose: 400.0 mg/kg/injection, schedule: Q04DX003 (ip), vehicle: Klucel (hydroxypropylcellulose) (HPC)) was 100 % of control.

With `O=C1C(=C2CCCCC2)SC(=S)N1c1ccccc1` the T/C [9] was 106 % of control, the T/C [7] was 103 % of control and the T/C [8] was 103 % of control.

For `O=[N+]([O-])c1ccc(Sc2ccc(Cl)cc2)c2nonc12`, the T/C [9] was 92 % of control.

Source: PubChem BioAssay AID328 (DTP/NCI, 2004)
